Source: ChEMBL document CHEMBL1155294, “Synthesis and evaluation of 6-methyl-3-phenylcoumarins as potent and selective MAO-B inhibitors” (Bioorg Med Chem Lett, 2009)

Tests used:
Homo sapiens = species: Homo sapiens; assay: Selectivity index, ratio of IC50 for human recombinant MAOA to IC50 for human recombinant MAOB
[1] = target: T1, Amine oxidase [flavin-containing] A (Homo sapiens, UniProt P21397); assay: Inhibition of human recombinant MAOA expressed in BTI cells at 100 uM; assay type: cell-based
T1 sequence (P21397 whole entry): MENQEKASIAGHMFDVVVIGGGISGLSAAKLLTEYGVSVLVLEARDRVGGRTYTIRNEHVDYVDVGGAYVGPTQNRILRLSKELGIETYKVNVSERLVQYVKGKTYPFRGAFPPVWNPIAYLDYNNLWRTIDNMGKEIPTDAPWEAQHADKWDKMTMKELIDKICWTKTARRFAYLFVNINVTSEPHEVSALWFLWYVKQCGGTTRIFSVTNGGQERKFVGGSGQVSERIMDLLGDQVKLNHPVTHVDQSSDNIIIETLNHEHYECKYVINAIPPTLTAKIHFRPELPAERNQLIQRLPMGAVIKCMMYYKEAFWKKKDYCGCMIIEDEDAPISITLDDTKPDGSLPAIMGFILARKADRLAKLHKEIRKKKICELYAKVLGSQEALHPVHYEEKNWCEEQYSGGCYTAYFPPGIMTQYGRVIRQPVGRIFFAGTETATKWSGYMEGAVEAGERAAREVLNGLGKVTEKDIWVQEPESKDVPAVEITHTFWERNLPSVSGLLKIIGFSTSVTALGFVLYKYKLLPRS

[2] = target: T2, Amine oxidase [flavin-containing] B (Homo sapiens, UniProt P27338); assay: Inhibition of human recombinant MAOB expressed in BTI cells; assay type: cell-based
T2 sequence (P27338 whole entry): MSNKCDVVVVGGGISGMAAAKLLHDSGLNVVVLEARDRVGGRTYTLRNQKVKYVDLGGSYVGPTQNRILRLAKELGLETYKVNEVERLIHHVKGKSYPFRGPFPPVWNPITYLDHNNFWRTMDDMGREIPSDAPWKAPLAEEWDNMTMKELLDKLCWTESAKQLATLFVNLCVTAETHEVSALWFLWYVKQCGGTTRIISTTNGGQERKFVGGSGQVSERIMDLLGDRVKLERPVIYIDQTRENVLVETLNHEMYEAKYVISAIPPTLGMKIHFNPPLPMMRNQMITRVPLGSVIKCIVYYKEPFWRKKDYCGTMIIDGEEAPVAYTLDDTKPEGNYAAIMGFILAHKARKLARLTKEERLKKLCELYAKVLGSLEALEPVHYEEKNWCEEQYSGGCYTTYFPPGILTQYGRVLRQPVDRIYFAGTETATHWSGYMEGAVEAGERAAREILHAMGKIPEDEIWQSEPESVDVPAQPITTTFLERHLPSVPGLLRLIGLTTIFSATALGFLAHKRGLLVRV

[3] = target: T2, Amine oxidase [flavin-containing] B; assay: Inhibition of human recombinant MAOB expressed in BTI cells at 100 uM; assay type: cell-based

| SMILES | Ratio IC50 (Homo sapiens) | inhibition (INH) [1] | IC50 [2] | IC50 [3] |
| --- | --- | --- | --- | --- |
| COc1ccc(-c2cc3cc(C)ccc3oc2=O)cc1 | > 7660 | Not Active |  |  |
| COc1cccc(-c2cc3cc(C)ccc3oc2=O)c1 | > 125000 | Not Active | 0.803 nM |  |
| Cc1ccc2oc(=O)c(-c3ccc(O)cc3)cc2c1 |  | Not Active |  |  |
| COc1ccccc1-c1cc2cc(C)ccc2oc1=O |  | Not Active |  | Not Active |
